Read-outs that look alike come from different tables or passages of the source.
What was measured:
[1] = target: T1, 5-HT transporter (Rattus norvegicus, UniProt P31652); test: Rat Brain ^3 H-Paroxetine Binding Assay (RB 5HT Transporter)
T1 construct: frontal cortical membranes prepared from male S.D. rats; from tissue; host or cells: frontal cortical membranes of male S.D. (Sprague-Dawley) rats
From the text: The 5-HT transporter affinity of the compounds of this invention was established in accordance with standard pharmaceutically accepted test procedures with representative compounds as follows:
Rat Brain ^3 H-Paroxetine Binding Assay (RB 5HT Transporter):
The following assay was used to determine a compound's affinity for the 5-HT transporter.
A protocol similar to that used by Cheetham et. al. (Neuropharmacol. 1993, 32, 737) was used. Briefly, frontal cortical membranes prepared from male S.D. rats were incubated with ^3 H-paroxetine (0.1 nM) for 60 min. at 25° C. All tubes also contained either vehicle, test compound (one to eight concentrations), or a saturating concentration of fluoxetine (10 μM) to define […]. All reactions are terminated by the addition of ice cold Tris buffer followed by rapid filtration using a Tom Tech filtration device to separate bound from free ^3 H-paroxetine. Bound radioactivity was quantitated using a Wallac 1205 Beta Plate® counter. Nonlinear regression analysis was used to determine IC50 values which were converted to Ki values using the method of Cheng and Prusoff (Biochem. Pharmacol. 1973, 22, 3099): [formula]

[2] = target: T2, Human 5-HT Transporter (Homo sapiens, UniProt P31645); test: Inhibition of ^3 H-5-HT Uptake by cells Possessing the Human 5-HT Transporter (HC 5HT Transporter); assay type: cell-based
T2 construct: endogenous in cells; host or cells: Jar cells (human carcinoma cell line), treated with staurosporine to raise expression
Experimental: [Staurosporine greatly increases the expression of the 5-HT-transporter.] On the day of assay, vehicle, excess of fluoxetine, or test compound is added to various wells on the plate. All wells then receive ^3 H-5-HT and are incubated at 37° C. for 5 min. The wells are then washed with ice cold 50 mM Tris HCl (pH 7.4) buffer and aspirated to remove free ^3 H-5-HT. 25 μl of 0.25 M NaOH is then added to each well to lyse the cells and 75 μl scintillation cocktail (Microscint™ 20) added prior to quantitation on a Packard TopCount machine. Tubes with vehicle represent total possible uptake, radioactivity counted in tubes with fluoxetine represent nonspecific binding/uptake and is subtracted from the total possible uptake to give total possible specific uptake. This nonspecific binding (usual low in number) is then subtracted from the counts obtained in wells with various test compounds (or different concentrations of test drug) to give specific uptake in the presence of drug. Specific uptake is then expressed as a % of control values and is analyzed using nonlinear regression analysis (Prizm) to determine IC50 values. If the compound is active at inhibiting 5-HT uptake, its counts will be close to that obtained with fluoxetine.

[3] = rat frontal cortical membranes; ^3 H-paroxetine (0.1 nM), 60 min, 25° C.; n = 1; read-out: RB 5HT Transporter Ki
[4] = Jar cells (human carcinoma), staurosporine treated, ^3 H-5-HT uptake, 37° C., 5 min, n = 1, read-out: HC 5HT Transporter IC50
[5] = RB 5HT Transporter Ki, rat frontal cortical membranes; ^3 H-paroxetine (0.1 nM), 60 min, 25° C.; n = 1

T1 sequence (P31652 whole entry): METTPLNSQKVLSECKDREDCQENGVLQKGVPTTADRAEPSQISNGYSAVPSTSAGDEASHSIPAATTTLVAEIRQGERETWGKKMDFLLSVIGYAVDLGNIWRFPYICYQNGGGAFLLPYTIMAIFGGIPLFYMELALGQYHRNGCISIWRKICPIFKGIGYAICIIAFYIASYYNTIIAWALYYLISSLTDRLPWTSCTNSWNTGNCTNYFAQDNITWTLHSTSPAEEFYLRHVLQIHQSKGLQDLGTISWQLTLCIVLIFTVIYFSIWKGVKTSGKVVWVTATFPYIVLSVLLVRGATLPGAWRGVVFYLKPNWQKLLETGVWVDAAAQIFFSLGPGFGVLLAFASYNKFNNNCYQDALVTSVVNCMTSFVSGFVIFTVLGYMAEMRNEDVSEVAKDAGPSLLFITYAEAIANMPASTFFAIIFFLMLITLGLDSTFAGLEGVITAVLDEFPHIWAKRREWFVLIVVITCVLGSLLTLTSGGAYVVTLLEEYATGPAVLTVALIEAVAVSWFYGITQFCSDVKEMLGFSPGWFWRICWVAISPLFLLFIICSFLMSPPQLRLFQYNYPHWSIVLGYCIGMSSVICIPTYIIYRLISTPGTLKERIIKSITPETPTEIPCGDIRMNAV
T2 sequence (P31645 whole entry): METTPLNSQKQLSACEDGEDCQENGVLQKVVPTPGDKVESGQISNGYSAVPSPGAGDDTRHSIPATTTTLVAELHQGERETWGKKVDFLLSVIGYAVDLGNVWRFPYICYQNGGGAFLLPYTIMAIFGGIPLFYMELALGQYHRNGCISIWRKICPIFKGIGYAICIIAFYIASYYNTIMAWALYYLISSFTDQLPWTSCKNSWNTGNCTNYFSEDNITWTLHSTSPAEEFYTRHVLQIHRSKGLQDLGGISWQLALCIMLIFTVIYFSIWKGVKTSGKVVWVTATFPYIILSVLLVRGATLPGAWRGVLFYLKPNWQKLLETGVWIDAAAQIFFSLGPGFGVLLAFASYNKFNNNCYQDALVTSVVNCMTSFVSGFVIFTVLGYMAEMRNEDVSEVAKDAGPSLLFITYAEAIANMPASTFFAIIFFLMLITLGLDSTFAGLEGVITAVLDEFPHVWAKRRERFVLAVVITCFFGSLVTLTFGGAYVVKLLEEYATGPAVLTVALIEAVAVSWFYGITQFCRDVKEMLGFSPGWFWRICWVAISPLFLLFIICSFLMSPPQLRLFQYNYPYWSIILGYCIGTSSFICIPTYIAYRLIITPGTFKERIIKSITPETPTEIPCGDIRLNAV

Row | Compound | Ki [1, 3] [µM] | IC50 [2, 4] [µM] | Ki [1, 5] [µM] | other results
1 | Fc1cccc(OC2CN(C3CCC(c4c[nH]c5cc(F)ccc45)CC3)C2)c1 (single isomer, unassigned) [Example 10a, 6-Fluoro-3-{4-[3-(3-fluoro-phenoxy)-azetidin-1-yl]-cyclohexyl}-1H-indole] | 0.19 | – | – | –
2 | N#Cc1ccc2[nH]cc([C@H]3CC[C@@H](N4CC(Oc5cccc(F)c5)C4)CC3)c2c1 [Example 2a, 3-(cis-4-[3-(3-Fluoro-phenoxy)-azetidin-1-yl]-cyclohexyl)-1H-indole-5-carbonitrile] | 0.016 | 0.337 | – | –
3 | COc1cccc(OC2CN([C@H]3CC[C@H](c4c[nH]c5ccc(C#N)cc54)CC3)C2)c1 [Example 3b] | – | – | 0.011 | IC50 [2]: 0.232 µM
4 | Fc1cccc(OC2CN([C@H]3CC[C@@H](c4c[nH]c5ccccc54)CC3)C2)c1 [Example 9a, 3-{4-[3-(3-Fluoro-phenoxy)-azetidin-1-yl]-cyclohexyl}-1H-indole] | – | – | 0.275 | –
5 | Fc1cccc(OC2CN([C@H]3CC[C@H](c4c[nH]c5ccccc54)CC3)C2)c1 [Example 9b, 3-{4-[3-(3-Fluoro-phenoxy)-azetidin-1-yl]-cyclohexyl}-1H-indole] | – | – | 0.455 | –
6 | COc1cccc(OC2CN([C@H]3CC[C@@H](c4c[nH]c5ccc(C#N)cc54)CC3)C2)c1 [Example 3a] | – | – | 0.00238 | IC50 [2]: 0.091 µM
7 | Fc1cccc(OC2CN([C@H]3CC[C@@H](c4c[nH]c5ccc(F)cc54)CC3)C2)c1 [Example 7a, 5-Fluoro-3-{cis-4-[3-(3-fluoro-phenoxy)-azetidin-1-yl]-cyclohexyl}-1H-indole] | 0.257 | – | – | –
8 | COc1ccccc1NC1CN([C@H]2CC[C@H](c3c[nH]c4ccc(F)cc43)CC2)C1 [Example 1b] | 0.017 | 0.591 | – | –
9 | Fc1cccc(OC2CN([C@H]3CC[C@H](c4c[nH]c5ccc(F)cc54)CC3)C2)c1 [Example 7b, 5-Fluoro-3-{trans-4-[3-(3-fluoro-phenoxy)-azetidin-1-yl]-cyclohexyl}-1H-indole] | – | – | – | IC50 ([2]; read-out: HC 5HT Transporter IC50, Jar cells (human carcinoma), staurosporine treated, ^3 H-5-HT uptake, 37° C., 5 min, n = 1): 6 µM; Ki ([1]; read-out: RB 5HT Transporter Ki; rat frontal cortical membranes; ^3 H-paroxetine (0.1 nM), 60 min, 25° C.; n = 1): 0.068 µM
10 | N#Cc1ccc2[nH]cc([C@H]3CC[C@H](N4CC(Oc5cccc(F)c5)C4)CC3)c2c1 [Example 2b, 3-(trans-4-[3-(3-Fluoro-phenoxy)-azetidin-1-yl]-cyclohexyl)-1H-indole-5-carbonitrile] | 0.048 | 0.282 | – | –
11 | COc1ccccc1NC1CN([C@H]2CC[C@H](c3c[nH]c4ccccc43)CC2)C1 [Example 5b, {1-[trans-4-(1H-Indol-3-yl)-cyclohexyl]-azetidin-3-yl}-(2-methoxy-phenyl)-amine] | – | – | 0.034 | –
12 | 2-{cis-4-[3-(3-Methoxy-phenoxy)-azetidin-1-yl]-cyclohexyl}-1H-indole [Example 6a] | 0.12 | – | – | –
13 | Fc1cccc(OC2CN(C3CCC(c4c[nH]c5cc(F)ccc45)CC3)C2)c1 (single isomer, unassigned) [Example 10b, 6-Fluoro-3-{4-[3-(3-fluoro-phenoxy)-azetidin-1-yl]-cyclohexyl}-1H-indole] | 0.073 | 4.6 | – | –
14 | COc1ccccc1NC1CN([C@H]2CC[C@@H](c3c[nH]c4ccc(F)cc43)CC2)C1 [Example 1a] | 0.015 | 0.962 | – | –
15 | COc1ccccc1NC1CN([C@H]2CC[C@@H](c3c[nH]c4ccccc43)CC2)C1 [Example 5a, {1-[cis-4-(1H-Indol-3-yl)-cyclohexyl]-azetidin-3-yl}-(2-methoxy-phenyl)-amine] | – | – | 0.124 | –
16 | Fc1cccc(NC2CN([C@H]3CC[C@@H](c4c[nH]c5ccc(F)cc54)CC3)C2)c1 [Example 4, {1-[cis-4-(5-Fluoro-1H-indol-3-yl)-cyclohexyl]-azetidin-3-yl}-(3-fluoro-phenyl)-amine] | 0.018 | 6.39 | – | –
17 | COc1cccc(OC2CN([C@H]3CC[C@H](c4c[nH]c5ccc(F)cc54)CC3)C2)c1 [Example 8b, 5-Fluoro-3-{trans-4-[3-(3-methoxy-phenoxy)-azetidin-1-yl]-cyclohexyl}-1H-indole] | 0.045 | 1.5 | – | –
18 | COc1cccc(OC2CN([C@H]3CC[C@@H](c4c[nH]c5ccc(F)cc54)CC3)C2)c1 [Example 8a, 5-Fluoro-3-{cis-4-[3-(3-methoxy-phenoxy)-azetidin-1-yl]-cyclohexyl}-1H-indole] | 0.024 | 6 | – | –

From US6245799A, “[(Indol-3-yl)-cycloalkyl]-3-substituted azetidines for the treatment of central nervous system disorders” (American Home Products Corp, priority 2000, dated 2001)
